From PubChem BioAssay (NCI) come the findings set out here.

Some test systems named below: A549 NSCLC; DU-145 prostate; EKVX NSCLC; HT29 colon; LOX IMVI melanoma; MCF7 breast; NCI-H522 lung; NCI/ADR-RES ovarian; OVCAR-5 ovarian; NCI-H460 lung.
Common to all, as to test: NCI tumour cell line growth inhibition, 48 h

“And” between values parts separate entries of the source, which are not always exact repeats. Equal entries are not always repeated.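 Grown in 96-well plates, cells were treated for 48 hours with each compound at five concentrations. Insufficient inhibition: endpoint recorded as highest concentration tested. The concentration for 50% growth inhibition is given as GI50. TGI is the concentration that stops growth completely.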 A value given as a limit tells only on which side of the number the result lay.

In the case of `CCCCOc1ccc(/C=N/Nc2cc(C)nc3ccc(Cl)cc23)cc1`, the GI50 in the experiment on A549 NSCLC is 1.86 µM; in the experiment with DU-145 prostate it was 1.82 µM; in the experiment on EKVX NSCLC, 1.63 µM; in the experiment with HT29 colon, 1.24 µM; in the experiment with LOX IMVI melanoma it was 1.69 µM; in the experiment on MCF7 breast, 1.65 µM. Besides, the figures for the GI50 in the experiment with NCI-H522 lung, with NCI/ADR-RES ovarian and with OVCAR-5 ovarian were 1.72 µM, 1.73 µM and 1.82 µM, respectively. For the same molecule, the TGI in the experiment with A549 NSCLC is 3.44 µM; in the experiment with DU-145 prostate it was 3.71 µM; in the experiment with EKVX NSCLC, 3.01 µM; in the experiment with HT29 colon, 2.61 µM; in the experiment with LOX IMVI melanoma, 3.09 µM; with MCF7 breast, 3.37 µM. Further, the results for the TGI with NCI-H522 lung, in the experiment with NCI/ADR-RES ovarian and in the experiment on OVCAR-5 ovarian were 3.29 µM, 3.36 µM and 3.24 µM, respectively.
Regarding `Oc1ccc(Cl)cc1-c1cc(-c2ccc(F)cc2)n[nH]1`, the GI50 is 2.11 µM in the experiment on A549 NSCLC; 3.04 µM with DU-145 prostate; 1.4 µM in the experiment on EKVX NSCLC; 3.99 µM in the experiment with HT29 colon; 1.51 µM in the experiment with LOX IMVI melanoma; 0.395 µM in the experiment on MCF7 breast. Moreover, the GI50 is 1.2 µM with NCI-H460 lung, 2.19 µM with NCI/ADR-RES ovarian and 5.39 µM in the experiment on OVCAR-5 ovarian. In addition, the TGI in the experiment on A549 NSCLC was determined as 7.2 µM; with DU-145 prostate, 10.8 µM; in the experiment with EKVX NSCLC, 14 µM; in the experiment on HT29 colon it was 22.2 µM; with LOX IMVI melanoma it was 3.55 µM; with MCF7 breast, 14.1 µM. Moreover, the values for the TGI in the experiment on NCI-H460 lung, with NCI/ADR-RES ovarian and with OVCAR-5 ovarian were 4.1 µM, 6.98 µM and over 100 µM, respectively.
On to `COc1cccc(C2=C(c3cn(C)c4cccc(OC)c34)C(=O)NC2=O)c1`, for which the GI50 in the experiment with A549 NSCLC was 11.2 µM; in the experiment on DU-145 prostate it was 10.7 µM; in the experiment on HT29 colon it was 5.34 µM; in the experiment on LOX IMVI melanoma it was 17.1 µM; in the experiment with MCF7 breast, 6.99 µM; with NCI-H460 lung, 8.75 µM. The GI50 with NCI-H522 lung is 1.67 µM; in the experiment on NCI/ADR-RES ovarian it was 5.28 µM; in the experiment with OVCAR-5 ovarian, over 23.5 µM. Besides, the TGI in the experiment on A549 NSCLC, in the experiment on DU-145 prostate, in the experiment on HT29 colon, in the experiment on LOX IMVI melanoma, in the experiment on MCF7 breast and in the experiment on NCI-H460 lung was over 25 µM each time. Moreover, the TGI was over 19.7 µM with NCI-H522 lung, over 25 µM with NCI/ADR-RES ovarian and over 25 µM in the experiment with OVCAR-5 ovarian.
As for `O=c1c2c3c(sc2n2c(-c4ccc(Br)cc4)nnc2n1Cc1ccccc1)CCCC3`, the GI50 in the experiment with A549 NSCLC is 12.4 µM; with DU-145 prostate, 9.72 µM; in the experiment with EKVX NSCLC it was 10.6 µM; with HT29 colon, 20.6 µM; in the experiment with LOX IMVI melanoma, 10.5 µM; in the experiment on MCF7 breast, 10.6 µM. For the same molecule, the GI50 in the experiment with NCI-H460 lung was 10.2 µM; in the experiment on NCI/ADR-RES ovarian it was 12.8 µM; in the experiment on OVCAR-5 ovarian it was 9.1 µM. The TGI came out at 24.8 µM in the experiment with A549 NSCLC; 22.9 µM with DU-145 prostate; 23.4 µM with EKVX NSCLC; 58.7 µM in the experiment with HT29 colon; 22.3 µM in the experiment on LOX IMVI melanoma; 23.2 µM with MCF7 breast. In addition, the results for the TGI with NCI-H460 lung, in the experiment on NCI/ADR-RES ovarian and in the experiment with OVCAR-5 ovarian were 22.3 µM, 36 µM and 24.8 µM, respectively.
For the molecule `O=C(c1ccccc1)C1C(C(=O)c2ccccc2)C(c2ccccc2)N(c2ccccc2)C1c1ccccc1` (configuration not stated), the TGI in the experiment with A549 NSCLC, in the experiment with DU-145 prostate, in the experiment with EKVX NSCLC, in the experiment on LOX IMVI melanoma, in the experiment with MCF7 breast and with NCI-H460 lung was over 100 µM in each case. Also, the TGI with NCI-H522 lung, in the experiment on NCI/ADR-RES ovarian and with OVCAR-5 ovarian was over 100 µM throughout.
As to `CC(C)(C)C(=O)OCc1nc2cc3c(cc2c(=O)[nH]1)CCC3=O`, the GI50 in the experiment with A549 NSCLC, in the experiment on DU-145 prostate, in the experiment with HT29 colon, in the experiment with LOX IMVI melanoma, with MCF7 breast and with NCI-H460 lung was over 100 µM throughout. The GI50 in the experiment with NCI-H522 lung, with NCI/ADR-RES ovarian and in the experiment on OVCAR-5 ovarian was over 100 µM in each case. The TGI with A549 NSCLC, in the experiment with DU-145 prostate, in the experiment with HT29 colon, in the experiment on LOX IMVI melanoma, in the experiment with MCF7 breast and in the experiment with NCI-H460 lung was over 100 µM throughout. Moreover, the TGI with NCI-H522 lung, in the experiment on NCI/ADR-RES ovarian and in the experiment on OVCAR-5 ovarian was over 100 µM throughout.
For the molecule `N#Cc1cccc(OCc2ccccc2COc2cccc(C#N)c2)c1`, the GI50 with A549 NSCLC is 42.5 µM; in the experiment on DU-145 prostate it was 25.9 µM; in the experiment on EKVX NSCLC, 28.3 µM; in the experiment on HT29 colon, over 100 µM; in the experiment on MCF7 breast it was 50.3 µM; in the experiment with NCI-H460 lung it was 40.8 µM. The GI50 with NCI-H522 lung is 98.1 µM; with NCI/ADR-RES ovarian, 50.1 µM; with OVCAR-5 ovarian it was 87 µM. In addition, the TGI was over 100 µM with A549 NSCLC; 99.1 µM with DU-145 prostate; 69.2 µM in the experiment with EKVX NSCLC; over 100 µM with HT29 colon; over 100 µM with MCF7 breast; over 100 µM in the experiment with NCI-H460 lung. The TGI with NCI-H522 lung, in the experiment on NCI/ADR-RES ovarian and in the experiment with OVCAR-5 ovarian was over 100 µM in each case.
Consider `CCOc1cc(C(C)(C)C)ccc1C1=N[C@@](C)(c2ccc(Cl)cc2)[C@@](C)(c2ccc(Cl)cc2)N1C(=O)N1CCN(CCS(C)(=O)=O)CC1`, for which the GI50 in the experiment with A549 NSCLC is 0.975 µM; in the experiment with DU-145 prostate, 4.85 µM; with HT29 colon, 2.29 µM; in the experiment with LOX IMVI melanoma, 1.17 µM; in the experiment on MCF7 breast, 0.606 µM; with NCI-H460 lung, 1.1 µM. The results for the GI50 in the experiment with NCI-H522 lung, with NCI/ADR-RES ovarian and in the experiment with OVCAR-5 ovarian were 2.98 µM, 4.09 µM and 2.46 µM, respectively. For the same molecule, the TGI in the experiment on A549 NSCLC was 5.31 µM; with DU-145 prostate, 16.1 µM; with HT29 colon, 4.74 µM; in the experiment with LOX IMVI melanoma it was 3.6 µM; in the experiment on MCF7 breast, 3.75 µM; with NCI-H460 lung it was 5.4 µM. Besides, the TGI is 10.2 µM in the experiment on NCI-H522 lung, 24.4 µM with NCI/ADR-RES ovarian and 7.8 µM in the experiment on OVCAR-5 ovarian.
For `O=C(CC(=O)c1ccccc1)c1ccccc1`, the GI50 was 26.9 µM in the experiment on A549 NSCLC; 11.9 µM in the experiment with DU-145 prostate; 11.2 µM in the experiment on EKVX NSCLC; 30.1 µM in the experiment on HT29 colon; 10.1 µM in the experiment on MCF7 breast; 7.94 µM with NCI-H460 lung. Besides, the figures for the GI50 in the experiment on NCI-H522 lung, with NCI/ADR-RES ovarian and in the experiment with OVCAR-5 ovarian were 29.3 µM, 16.8 µM and 25.6 µM, respectively. The TGI was 69.5 µM with A549 NSCLC; 65.3 µM with DU-145 prostate; 38 µM with EKVX NSCLC; over 100 µM with HT29 colon; 82.3 µM in the experiment on MCF7 breast; 40 µM in the experiment with NCI-H460 lung. Moreover, the TGI was over 100 µM in the experiment on NCI-H522 lung, 44 µM in the experiment on NCI/ADR-RES ovarian and over 100 µM in the experiment on OVCAR-5 ovarian.
As for `COc1cc(-c2nn(-c3ccc(NC(=O)c4cc(Cl)cc(Cl)c4)cc3)cc2-c2ccncc2)ccc1Cl`, the GI50 with A549 NSCLC is over 100 µM; in the experiment on DU-145 prostate it was over 100 µM; in the experiment with EKVX NSCLC, over 100 µM; in the experiment on HT29 colon it was 3.53 µM; in the experiment on LOX IMVI melanoma, 3.09 µM; with MCF7 breast it was over 100 µM. The GI50 in the experiment with NCI-H460 lung was 8.48 µM; with NCI/ADR-RES ovarian, over 100 µM; in the experiment with OVCAR-5 ovarian, over 100 µM. In addition, the TGI with A549 NSCLC, with DU-145 prostate, with EKVX NSCLC, with HT29 colon, in the experiment with LOX IMVI melanoma and in the experiment with MCF7 breast was over 100 µM each time. For the same molecule, the TGI in the experiment with NCI-H460 lung, in the experiment with NCI/ADR-RES ovarian and in the experiment with OVCAR-5 ovarian was over 100 µM in each case.
As to `Nc1c(C(=O)Nc2cccc(Br)c2)sc2nc3c(cc12)C(O)CCC3` (configuration not stated), the GI50 in the experiment on A549 NSCLC was 0.494 µM; in the experiment on DU-145 prostate, 0.455 µM; with HT29 colon, 0.319 µM; in the experiment with LOX IMVI melanoma it was 0.726 µM; with MCF7 breast, 0.289 µM; in the experiment with NCI-H460 lung it was 0.375 µM. The GI50 with NCI-H522 lung is 0.412 µM; with NCI/ADR-RES ovarian, 0.435 µM; in the experiment on OVCAR-5 ovarian, 3.37 µM. For the same molecule, the TGI is 22 µM in the experiment on A549 NSCLC; 22.4 µM in the experiment with DU-145 prostate; 11 µM in the experiment with HT29 colon; over 85.1 µM with LOX IMVI melanoma; over 64.2 µM in the experiment on MCF7 breast; 22 µM in the experiment with NCI-H460 lung. Besides, the TGI in the experiment with NCI-H522 lung was over 67.6 µM; in the experiment with NCI/ADR-RES ovarian, over 48.8 µM; in the experiment with OVCAR-5 ovarian it was 60 µM.
Consider `CCCCCc1c(C)[nH]c(/C=C2\N=C(c3ccc[nH]3)C=C2OCc2ccccc2)c1C`, for which the GI50 with A549 NSCLC is 0.0328 µM and 0.0283 µM; in the experiment on DU-145 prostate it was 0.0581 µM and 0.0366 µM; in the experiment on HT29 colon, 0.0314 µM and 0.0196 µM; in the experiment with LOX IMVI melanoma, 0.0195 µM and 0.0117 µM; in the experiment with MCF7 breast, 0.0395 µM and 0.0361 µM; in the experiment with NCI-H460 lung, 0.0423 µM and 0.031 µM. For the same molecule, the GI50 was 0.0495 µM and 0.0237 µM with NCI-H522 lung; 0.255 µM and 0.0776 µM with NCI/ADR-RES ovarian; 0.0701 µM and 0.0473 µM with OVCAR-5 ovarian. In addition, the TGI with A549 NSCLC was 0.381 µM and 0.0957 µM; in the experiment with DU-145 prostate, 1.62 µM and 1.08 µM; in the experiment with HT29 colon, 1.22 µM; with LOX IMVI melanoma it was 0.0458 µM and 0.0377 µM; in the experiment on MCF7 breast, 0.859 µM and 1.06 µM; in the experiment with NCI-H460 lung, 1.42 µM and 1.16 µM. Further, the TGI in the experiment on NCI-H522 lung is 0.719 µM and 0.262 µM; with NCI/ADR-RES ovarian, 1.46 µM and 0.761 µM; with OVCAR-5 ovarian, 2.31 µM and 1.63 µM.
